This passage reports inhibition results from patent US12612384B2, “Heterocyclic CYP4A inhibitor compounds and compositions thereof” (MBD CO., LTD., priority 2021, dated 2026).

One may read the inhibition as how much of the control response was suppressed.

The first experiment concerns the target T1, CYP4A (Homo sapiens, UniProt Q02928).
T1 construct: purchased; host or cells: bacterial membranes ('bactosome')
T1 sequence (Q02928 5-519): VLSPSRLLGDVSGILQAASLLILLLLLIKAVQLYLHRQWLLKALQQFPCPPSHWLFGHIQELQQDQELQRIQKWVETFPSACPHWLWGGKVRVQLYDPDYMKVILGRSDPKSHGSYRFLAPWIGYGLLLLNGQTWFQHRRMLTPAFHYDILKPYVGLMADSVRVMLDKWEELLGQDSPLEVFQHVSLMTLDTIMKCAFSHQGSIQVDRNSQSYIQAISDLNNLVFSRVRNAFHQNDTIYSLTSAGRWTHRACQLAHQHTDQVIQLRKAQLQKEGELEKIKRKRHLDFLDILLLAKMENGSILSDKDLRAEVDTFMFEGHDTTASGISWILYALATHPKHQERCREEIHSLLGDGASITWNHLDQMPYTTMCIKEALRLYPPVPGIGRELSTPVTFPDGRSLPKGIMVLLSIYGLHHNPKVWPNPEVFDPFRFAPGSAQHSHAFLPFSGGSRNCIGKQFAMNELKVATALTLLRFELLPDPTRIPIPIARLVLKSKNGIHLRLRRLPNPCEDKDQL
As to the kind of experiment: CYP4A enzyme assay (luminescence, Luciferin-ME). The format is biochemical. As to conditions: Compound concentration 5 μM; 70%-90%; read-out: % Inhibition 70%-90%. The procedure: The CYP4A inhibitory activity of the above compounds of the examples was measured. The reagents used in the experiment were commercially available, and were prepared and used when necessary. The device used for measuring activity was SpectraMax of MOLECULAR DEVICES.
CYP4A bactosome and the compounds to be evaluated (5 μM) were each diluted in assay buffer (100 mM KPO4, 0.1% BSA, 1 mM DTT) and mixed in a 384 well plate (white opaque polystyrene nontreated flat-bottom well), and reaction was carried out at room temperature for 15 minutes. To induce CYP4A reaction, 5 mM Luciferin-ME, NADPH Regeneration system (10× sol. A, 20× sol. B in assay buffer, Cat. Number: V865B, Promega) were sequentially added and mixed, and the reaction was carried out at room temperature for 30 minutes. Then, Luciferin Detection reagent was added thereto and reacted at room temperature for 15 minutes to stop the CYP4A reaction and induce a luminescence reaction. Finally, after measuring the luminescence value using a microplate reader, the inhibition of CYP4A activity by the compounds was evaluated by comparing the luminescence value from each well.
Consider `O=C(C1CCN(S(=O)(=O)c2ccc(Cl)nc2)C1)N1CCN(c2ccnc3ccccc23)CC1` (stereo not shown) [Example 24, (1-((6-chloropyridin-3-yl)sulfonyl)pyrrolidin-3-yl)(4-(quinolin-4-yl)piperazin-1-yl)methanone], for which the inhibition at 5 µM lay in the range of 70 to 90%.
Same read-out and setting: in the case of `O=C(C1CCN(S(=O)(=O)c2ccc(Br)cc2)C1)N1CCN(c2ccnc3ccccc23)CC1` (stereo not shown) [Example 31, (1-((4-bromophenyl)sulfonyl)pyrrolidin-3-yl)(4-(quinolin-4-yl)piperazin-1-yl)methanone] it was 70 to 90%; in that of `O=C(C1CCN(S(=O)(=O)c2cccs2)C1)N1CCN(c2ccnc3ccccc23)CC1` (stereo not shown) [Example 36, (4-(quinolin-4-yl)piperazin-1-yl)(1-(thiophen-2-ylsulfonyl)pyrrolidin-3-yl)methanone], 70 to 90%; in that of `Cc1ccc(S(=O)(=O)N2CCC(C(=O)N3CCN(c4ccnc5ccccc45)CC3)C2)s1` (stereo not shown) [Example 37, (1-((5-methylthiophen-2-yl)sulfonyl)pyrrolidin-3-yl)(4-(quinolin-4-yl)piperazin-1-yl)methanone], 70 to 90%.
Regarding `O=C(C1CCN(S(=O)(=O)c2ccc(C(F)(F)F)cn2)C1)N1CCN(c2ccnc3ccccc23)CC1` (stereo not shown) [Example 41, (4-(quinolin-4-yl)piperazin-1-yl)(1-((5-(trifluoromethyl)pyridin-2-yl)sulfonyl)pyrrolidin-3-yl)methanone], the inhibition at 5 µM lay in the range of 70 to 90%.
The same measure, in the same setting: next, `COC(=O)c1sccc1S(=O)(=O)N1CCC(C(=O)N2CCN(c3ccnc4ccccc34)CC2)C1` (stereo not shown) [Example 50, methyl 3-((3-(4-(quinolin-4-yl)piperazine-1-carbonyl)pyrrolidin-1-yl)sulfonyl)thiophene-2-carboxylate]: 70 to 90%; `COc1ccc(S(=O)(=O)N2CCC(C(=O)N3CCN(c4ccnc5ccccc45)CC3)C2)cn1` (stereo not shown) [Example 51, (1-((6-methoxypyridin-3-yl)sulfonyl)pyrrolidin-3-yl)(4-(quinolin-4-yl)piperazin-1-yl)methanone]: 70 to 90%.

Still in this experiment, the particulars now being: Compound concentration 5 μM; Greater than 90%; read-out: % Inhibition Greater than 90%.
Take `O=C(C1CCN(S(=O)(=O)c2ccc(-c3ccccc3)nc2)C1)N1CCN(c2ccnc3ccccc23)CC1` (stereo not shown) [Example 25, (1-((6-phenylpyridin-3-yl)sulfonyl)pyrrolidin-3-yl)(4-(quinolin-4-yl)piperazin-1-yl)methanone]: the inhibition at 5 µM is > 90%.
Still for that read-out and setting: in the case of `O=C(C1CCN(S(=O)(=O)c2ccc(-c3ccncc3)nc2)C1)N1CCN(c2ccnc3ccccc23)CC1` (stereo not shown) [Example 26, (1-([2,4′-bipyridin]-5-ylsulfonyl)pyrrolidin-3-yl)(4-(quinolin-4-yl)piperazin-1-yl)methanone] it was > 90%; in that of `O=C(C1CCN(S(=O)(=O)c2ccc(-c3cccc(O)c3)nc2)C1)N1CCN(c2ccnc3ccccc23)CC1` (stereo not shown) [Example 27, (1-((6-(3-hydroxyphenyl)pyridin-3-yl)sulfonyl)pyrrolidin-3-yl)(4-(quinolin-4-yl)piperazin-1-yl)methanone], > 90%.
Still for that read-out and setting: next, `O=C(C1CCN(S(=O)(=O)c2ccc(-c3ccc(O)cc3)nc2)C1)N1CCN(c2ccnc3ccccc23)CC1` (stereo not shown) [Example 28, (1-((6-(4-hydroxyphenyl)pyridin-3-yl)sulfonyl)pyrrolidin-3-yl)(4-(quinolin-4-yl)piperazin-1-yl)methanone]: > 90%; `O=C(C1CCN(S(=O)(=O)c2ccc(-c3cccnc3)nc2)C1)N1CCN(c2ccnc3ccccc23)CC1` (stereo not shown) [Example 29, (1-([2,3′-bipyridin]-5-ylsulfonyl)pyrrolidin-3-yl)(4-(quinolin-4-yl)piperazin-1-yl)methanone]: > 90%.
Same read-out and setting: in the case of `CC(=O)Nc1ccc(S(=O)(=O)N2CCC(C(=O)N3CCN(c4ccnc5ccccc45)CC3)C2)cn1` (stereo not shown) [Example 30, N-(5-((3-(4-(quinolin-4-yl)piperazine-1-carbonyl)pyrrolidin-1-yl)sulfonyl)pyridin-2-yl)acetamide] it was > 90%; in that of `O=C(C1CCN(S(=O)(=O)c2ccc(-c3cccnc3)cc2)C1)N1CCN(c2ccnc3ccccc23)CC1` (stereo not shown) [Example 32, (1-((4-(pyridin-3-yl)phenyl)sulfonyl)pyrrolidin-3-yl)(4-(quinolin-4-yl)piperazin-1-yl)methanone], > 90%; in that of `Cc1ncc(-c2ccc(S(=O)(=O)N3CCC(C(=O)N4CCN(c5ccnc6ccccc56)CC4)C3)cc2)cn1` (stereo not shown) [Example 33, (1-((4-(2-methylpyrimidin-5-yl)phenyl)sulfonyl)pyrrolidin-3-yl)(4-(quinolin-4-yl)piperazin-1-yl)methanone], > 90%.
For the compound `O=C(C1CCN(S(=O)(=O)c2ccc(-c3ccc(O)nc3)cc2)C1)N1CCN(c2ccnc3ccccc23)CC1` (stereo not shown) [Example 34, (1-((4-(6-hydroxypyridin-3-yl)phenyl)sulfonyl)pyrrolidin-3-yl)(4-(quinolin-4-yl)piperazin-1-yl)methanone], the inhibition at 5 µM was > 90%.
The same measure, in the same setting: in the case of `O=C(C1CCN(S(=O)(=O)c2ccc(N3CCOCC3)cc2)C1)N1CCN(c2ccnc3ccccc23)CC1` (stereo not shown) [Example 35, (1-((4-morpholinophenyl)sulfonyl)pyrrolidin-3-yl)(4-(quinolin-4-yl)piperazin-1-yl)methanone] it was > 90%; in that of `Cc1nn(C)c(C)c1S(=O)(=O)N1CCC(C(=O)N2CCN(c3ccnc4ccccc34)CC2)C1` (stereo not shown) [Example 38, (4-(quinolin-4-yl)piperazin-1-yl)(1-((1,3,5-trimethyl-1H-pyrazol-4-yl)sulfonyl)pyrrolidin-3-yl)methanone], > 90%; in that of `Cc1noc(C)c1S(=O)(=O)N1CCC(C(=O)N2CCN(c3ccnc4ccccc34)CC2)C1` (stereo not shown) [Example 39, (1-((3,5-dimethylisoxazol-4-yl)sulfonyl)pyrrolidin-3-yl)(4-(quinolin-4-yl)piperazin-1-yl)methanone], > 90%.
Still for that read-out and setting: next, `Cc1nc(C)c(S(=O)(=O)N2CCC(C(=O)N3CCN(c4ccnc5ccccc45)CC3)C2)s1` (stereo not shown) [Example 40, (1-((2,4-dimethylthiazol-5-yl)sulfonyl)pyrrolidin-3-yl)(4-(quinolin-4-yl)piperazin-1-yl)methanone]: > 90%.
Still for that read-out and setting: next, `O=C(C1CCN(S(=O)(=O)c2ncc[nH]2)C1)N1CCN(c2ccnc3ccccc23)CC1` (stereo not shown) [Example 42, (1-((1H-imidazol-2-yl)sulfonyl)pyrrolidin-3-yl)(4-(quinolin-4-yl)piperazin-1-yl)methanone]: > 90%; `O=C(C1CCN(S(=O)(=O)c2ncn[nH]2)C1)N1CCN(c2ccnc3ccccc23)CC1` (stereo not shown) [Example 43, (1-((1H-1,2,4-triazol-5-yl)sulfonyl)pyrrolidin-3-yl)(4-(quinolin-4-yl)piperazin-1-yl)methanone]: > 90%; `Cn1cc(S(=O)(=O)N2CCC(C(=O)N3CCN(c4ccnc5ccccc45)CC3)C2)cn1` (stereo not shown) [Example 44, (1-((1-methyl-1H-pyrazol-4-yl)sulfonyl)pyrrolidin-3-yl)(4-(quinolin-4-yl)piperazin-1-yl)methanone]: > 90%.
On to `Cc1n[nH]c(C)c1S(=O)(=O)N1CCC(C(=O)N2CCN(c3ccnc4ccccc34)CC2)C1` (stereo not shown) [Example 45, (1-((3,5-dimethyl-1H-pyrazol-4-yl)sulfonyl)pyrrolidin-3-yl)(4-(quinolin-4-yl)piperazin-1-yl)methanone], for which the inhibition at 5 µM was > 90%.
Still for that read-out and setting: in the case of `Cn1cnc(S(=O)(=O)N2CCC(C(=O)N3CCN(c4ccnc5ccccc45)CC3)C2)c1` (stereo not shown) [Example 46, (1-((1-methyl-1H-imidazol-4-yl)sulfonyl)pyrrolidin-3-yl)(4-(quinolin-4-yl)piperazin-1-yl)methanone] it was > 90%; in that of `CC(=O)Nc1nc(C)c(S(=O)(=O)N2CCC(C(=O)N3CCN(c4ccnc5ccccc45)CC3)C2)s1` (stereo not shown) [Example 47, N-(4-methyl-5-((3-(4-(quinolin-4-yl)piperazine-1-carbonyl)pyrrolidin-1-yl)sulfonyl)thiazol-2-yl)acetamide], > 90%; in that of `CC(=O)Nc1nc(C)c(S(=O)(=O)N2CC[C@@H](C(=O)N3CCN(c4ccnc5ccccc45)CC3)C2)s1` [Example 48, (R)—N-(4-methyl-5-((3-(4-(quinolin-4-yl)piperazine-1-carbonyl)pyrrolidin-1-yl)sulfonyl)thiazol-2-yl)acetamide], > 90%.
For `CC(=O)Nc1nc(C)c(S(=O)(=O)N2CC[C@H](C(=O)N3CCN(c4ccnc5ccccc45)CC3)C2)s1` [Example 49, (S)—N-(4-methyl-5-((3-(4-(quinolin-4-yl)piperazine-1-carbonyl)pyrrolidin-1-yl)sulfonyl)thiazol-2-yl)acetamide], the inhibition at 5 µM was > 90%.
